Laboratory results: publication PMC8218531 (Structure (London, England : 1993), 2021)
Where two headings read alike, the source gives them in different places.

Tests used:
M^pro = settings: covalent inhibitors, ref Dai et al., 2020, Ma et al., Qiao et al., 2021; cited from earlier work
SARS-CoV-2 M^pro [1] = molecular target: T1, SARS-CoV-2 M^pro (Severe acute respiratory syndrome coronavirus 2, UniProt P0DTD1); test: Enzyme kinetics of M^pro with inhibitors; assay type: biochemical; settings: for in vitro activity against M^pro in words: compounds of this study with hydrophilic groups in S4
SARS-CoV-2 M^pro [2] = molecular target: T1, SARS-CoV-2 M^pro; settings: cited from earlier work

Row | Structure (SMILES) | IC50 in words (M^pro) | in vitro activity against M^pro in words (SARS-CoV-2 M^pro [1]) | also measured
1 | CC(C)C[C@H](NC(=O)OCc1ccccc1)C(=O)N[C@@H](CC1CCNC1=O)C(O)S(=O)(=O)[O-].[Na+] (some centres unmarked) [GC-376] | Low-nanomolar | – | –
2 | CC(C)(O)CCOc1cc(Cl)cc(-c2cc(-c3c[nH]c(=O)[nH]c3=O)cn(-c3cccnc3)c2=O)c1 [Compound 29, 5-(3-(3-Chloro-5-(3-hydroxy-3-methylbutoxy)phenyl)-2-oxo-2H-[1,3'-bipyridin]-5-yl) pyrimidine-2,4(1H,3H)-dione] | – | high-nanomolar range | IC50 (SARS-CoV-2 M^pro [1]): 0.25 to 0.5 µM; decrease in activity compared with 11 (SARS-CoV-2 M^pro [1]; compared with compound 11): greater than 2 fold
3 | O=CC(CC1CCNC1=O)NC(=O)C(Cc1cccc(F)c1)NC(=O)c1cc2ccccc2[nH]1 (centres unmarked) [Compound 11b] | Low-nanomolar | – | –
4 | O=C1CN(CCOc2cc(Cl)cc(-c3cc(-c4c[nH]c(=O)[nH]c4=O)cn(-c4cccnc4)c3=O)c2)CCN1 [Compound 50, 5-(3-(3-Chloro-5-(2-(3-oxopiperazin-1-yl)ethoxy)phenyl)-2-oxo-2H-[1,3'-bipyridin]-5-yl) pyrimidine-2,4(1H,3H)-dione] | – | high-nanomolar range | –
5 | N#Cc1ccccc1-c1cc(-c2ccccn2)cn(-c2ccccc2)c1=O [Perampanel, perampanel] | – | – | IC50 (SARS-CoV-2 M^pro [2]): 100 to 250 µM
6 | O=CC(CC1CCNC1=O)NC(=O)C(CC1CCCCC1)NC(=O)c1cc2ccccc2[nH]1 (centres unmarked) [Compound 11a] | Low-nanomolar | – | –
